How the values were obtained:
mdx mouse = assay: Longterm treatment of mdx mice (model for Duchenne Muscular Dystrophy); format: in vivo; conditions: 10 mg/kg/day i.p., 4 weeks, vs vehicle mdx mice
Protocol: The mdx mouse is a well established animal model for Duchenne Muscular Dystrophy (Bulfield G., Siller W. G., Wight P. A., Moore K. J., X chromosome-linked muscular dystrophy (mdx) in the mouse, Proc. Natl. Acad. Sci. USA., 1984, 81(4), 1189-1192). Selected compounds were tested in longterm treatments of mdx mice, according to the procedures described below.
Mouse strains: C57BL/10scsn and C57BL/10scsn mdx mouse strains were purchased at The Jackson Laboratory (ME, USA) and bred inhouse. Mouse males were sacrificed at the age of 3 or 7 weeks by CO2 asphyxiation.
Treatment: Compounds were dissolved in 50% PEG, 50% saline solution and applied by i.p. injection.
Histology: Tibialis anterior (TA) and diaphragm (Dia) muscles were collected and mounted on cork supports using gum tragacanth (Sigma-Aldrich, Germany). The samples were snap-frozen in melting isopentane and stored at −80° C. 12 μm thick cryosections of the mid-belly region of muscles were prepared. For staining, sections were air dried and fixed with 4% PFA in PBS for 5 minutes, washed 3 times with PBS and incubated over night at 4° C. in PBS containing 2 μg/ml Alexa Fluor™ 488 conjugated wheat-germ agglutinin (WGA-Alexa, Molecular Probes, Eugen, Oreg., USA) to stain membrane-bound and extracellular epitopes and 1 μg/ml 4′,6-diamidino-2-phenylindole (DAPI; Molecular Probes) to stain nuclei.
Image acquisition and analysis: Fluorescence microscopy images of both labels were acquired using a digital camera (ColorView II, Soft Imaging System, Munster, Germany) coupled to a fluorescence microscope (Vanox S, Olympus, Tokyo, Japan). Combination of these two stainings to a composite image, assembling of several images to a complete image of the entire muscle cross-section and further semi-automated analysis was performed using the image analysis program AnalySIS (Soft Imaging System). Image analysis of 1200-2900 muscle fibers in each section was performed in three steps: 1) determination of the muscle fiber boundaries, 2) determination of the muscle fiber size, and 3) determination of the percentage of muscle fibers containing centralized nuclei. Six different geometrical parameters were tested for the determination of the muscle fiber size: (a) the “minimal feret” (the minimum distance of parallel tangents at opposing borders of the muscle fiber), (b) the “area”, (c) the “minimal inner diameter” (the minimum diameter through the center of the muscle fiber), (d) the “minimal diameter” (the minimum diameter of a muscle fiber for angles in the range 0° through 179° with step width 1°, (e) the “minimal outer diameter” (the minimum diameter through the muscle fiber from outer border to outer border), and (f) the “perimeter”. The variance coefficient of the muscle fiber size is defined as follows: variance coefficient=(standard deviation of the muscle fiber size/mean of the muscle fiber size of the section)*1000. For statistical analysis of different variance coefficient values Mann-Whitney U test was used.
Selected Examples of the present invention were active in the mdx mouse model at 10 mg/kg/day, using 3 week old mice and a treatment period of 4 weeks (N=5−10).

20S Proteasome = biological target: T1, 20S Proteasome (Oryctolagus cuniculus, UniProt G1T4Q9); assay: 20S Proteasome assay; format: biochemical, Rabbit; conditions: substrate Suc-Leu-Leu-Val-Tyr-AMC; read-out: 20S Prot IC50
T1 sequence (G1T4Q9 1-263): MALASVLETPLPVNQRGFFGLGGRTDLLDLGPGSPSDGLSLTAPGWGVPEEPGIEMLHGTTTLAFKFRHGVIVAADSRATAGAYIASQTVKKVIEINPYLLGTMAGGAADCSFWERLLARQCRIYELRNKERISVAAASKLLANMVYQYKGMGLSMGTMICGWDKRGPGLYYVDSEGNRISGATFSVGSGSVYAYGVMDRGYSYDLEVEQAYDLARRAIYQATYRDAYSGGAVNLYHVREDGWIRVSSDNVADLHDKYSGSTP
Protocol: 25 μl of a reaction buffer containing 400 μM of the fluorogenic substrate Suc-Leu-Leu-Val-Tyr-AMC (Bachem) are dispensed per well of a white microtiter plate. Test compounds dissolved in 0.5 μl DMSO are added. To start the reaction; 25 μl of reaction buffer containing 35 ng of enzyme (20S Proteasome, Rabbit, Calbiochem) are added. The increase in fluorescence (excitation at 360 nm; emission at 440 nm) is measured over 30 min at 30° C. at 30″. The IC50's are then determined from the slopes.

CCNC(=O)C(=O)[C@H](Cc1ccc(Br)cc1)NC(=O)[C@H](CC(C)C)NC(=O)CCCCC1CCSS1 (some centres unmarked) [Example 64]
decrease in the variance coefficient of the muscle fiber size (mdx mouse; Dia (diaphragm)): 29%
reduction of percentage of centralized nuclei (mdx mouse; Dia (diaphragm)): 61%
decrease in the variance coefficient of the muscle fiber size (mdx mouse; TA (tibialis anterior)): 43%
reduction of percentage of centralized nuclei (mdx mouse; TA (tibialis anterior)): 28%
IC50 (20S Proteasome): 40 nM
